Data on 2 molecules can be found in patent publication US10758539B2, “Therapeutic compounds and uses thereof” (Kala Pharmaceuticals, Inc., priority 2013, dated 2020).

Series [1] can be described thus: Particle size of compounds milled with PLURONIC F127 as MPP, by dynamic light scattering. The following applies: formulated as MPP, milled with PLURONIC F127, buffered with DPBS. It counts as physicochemical. The text has this:
The compounds of the present invention synthesized in accordance with the preceding Examples were formulated as mucus penetrating particles (MPP). Specifically, Compound 4 of Example 1, Compound 9 of Example 2, and Compound 13 of Example 3 were each milled in the presence of PLURONIC F127 (F127) to determine whether F127 1) aids particle size reduction to several hundreds of nanometers and 2) physically (non-covalently) coats the surface of generated nanoparticles with a mucoinert coating that would minimize particle interactions with mucus constituents and prevent mucus adhesion.
A milling procedure was employed in which an aqueous dispersion containing coarse drug particles and PLURONIC F127 (F127) was milled with grinding medium until particle size was reduced below 400 nm as measured by dynamic light scattering. Table 4 lists the size of particles and polydispersity index (a measure of the width of the particle size distribution) generated using this technique. In this example suspensions were buffered using DPBS (Dulbecco's Phosphate-Buffered Saline) which yields a suspension that is both isotonic and has a physiologically relevant pH.

Series [2] in a line: Pharmacokinetic study, back of the eye drug exposure after topical instillation of MPP. The following applies: Dutch-belted, rabbit, topical or ocular, 50 μL of 0.5% MPP, MPP 0.5%, 50 μL topical, BID 5 days, 8 mm round punch. It is filed as in vivo, Dutch-belted rabbits. The text has this: (§1) Dutch-belted rabbits were used in these studies.
The portion of the retina and choroid collected and analyzed was an 8 mm round punch where the macula is located in humans.

Series [3] is described as follows: Draize-Ocular Irritation assessment during the PK study. It is filed as in vivo, Dutch-belted rabbits. The following applies: MPP 0.5%, 50 μL topical, BID 5 days.
From the text: as §1

Series [4] in a line: Physical and chemical stability of Compound 4 solutions at ambient temperature. It is filed as physicochemical. The following applies: 20-25° C. The protocol: In this example, Compound 4 was formulated as a solution for topical ocular administration. Solutions of Compound 4 were formulated at a range of concentrations. Briefly, Compound 4 was first completely solubilized using an acidic solution (0.1N HCl) at a high concentration of ˜5% (w/v). The final formulation was diluted to 0.5, 0.1, or 0.05% (w/v) Compound 4 into 20 mM Citrate buffered solution containing TWEEN 80 as described in Table 7. Following dilution, the pH's of the formulations were estimated to be ˜5.5-6.5, using a universal pH indicator solution (Ricca).
Solution physical and chemical stability at ambient temperature (20-25° C.) were evaluated 10-21 days after initial formulation (tfinal). Physical stability was assessed visually. No precipitation or sedimentation in any samples was observed. All formulations maintained good chemical stability, within 10% of target concentration at tfinal. The API purity as defined by % peak area for all formulations were also high, at >99% (Table 8). Formulations pH's were also measured using a universal pH indicator solution (RICCA) and confirmed be similar to those at initial time of formulation.

[5] abbreviates: target API 0.05% (w/v), TWEEN 80 0.05% (w/v), tfinal 13 days.
The mark [6] stands for this setting: target API 0.10% (w/v), TWEEN 80 0.1% (w/v), tfinal 21 days.
Setting [7] is: target API 0.50% (w/v), TWEEN 80 4% (w/v), tfinal 10 days.

Like-named read-outs stand apart in the source and are kept apart here.

As to `CCCNC(=O)n1c(C)cc2c(F)c(Oc3ncnc4cc(OC)c(OC)cc34)ccc21` [Compound 13, 5-(6,7-Dimethoxyquinazolin-4-yloxy)-4-fluoro-2-methyl-N-propyl-1H-indole-1-carboxamide], in series [1], the “Particle Size” value was 165 nm and the “Polydispersity Index (PDI)” value came to 0.227.

With `COc1cc2c(Oc3ccc4[nH]c(C)cc4c3F)ncnc2cc1OCCCN1CCC2(CC1)COC2` [Compound 4, 7-(3-(4-(4-fluoro-2-methyl-1H-indol-5-yloxy)-6-methoxyquinazolin-7-yloxy)propyl)-2-oxa-7-azaspiro[3.5]nonane], the “Particle Size” value in series [1] is 270 nm. In addition, the “Polydispersity Index (PDI)” value in series [1] is 0.142. Also, the AUC(0-t) in series [2] (choroid, read-out: AUC0-last Choroid) was determined as 37.2 µM·h; in series [2] (retina, read-out: AUC0-last Retina), 1.15 µM·h. Also, the Cmax was found to be 3900 nM in series [2] (choroid, read-out: Cmax Choroid) and 193 nM in series [2] (retina, read-out: Cmax Retina). The “Draize-Ocular Irritation” value in series [3] was “no irritation was seen”. Further, the “API % (w/v) at t = tfinal” value is given as 0.05 % (w/v) in series [4] (setting [5]), 0.11 % (w/v) in series [4] (setting [6]) and 0.51 % (w/v) in series [4] (setting [7]). Moreover, the figures for the “API % peak area at t = tfinal” value in series [4] (setting [5]), in series [4] (setting [6]) and in series [4] (setting [7]) were 99.45%, 99.47% and 99.27%, respectively.
